Results reported in BindingDB's records for doi:10.1021/jm00037a025 (University of Oxford, 1994).

Molecular target: D(2) dopamine receptor (Rattus norvegicus, UniProt P61169)
Assay: Displacement of spiperone from dopamine receptor D2 of rat brain membrane

D(2) dopamine receptor, sequence (P61169 whole entry): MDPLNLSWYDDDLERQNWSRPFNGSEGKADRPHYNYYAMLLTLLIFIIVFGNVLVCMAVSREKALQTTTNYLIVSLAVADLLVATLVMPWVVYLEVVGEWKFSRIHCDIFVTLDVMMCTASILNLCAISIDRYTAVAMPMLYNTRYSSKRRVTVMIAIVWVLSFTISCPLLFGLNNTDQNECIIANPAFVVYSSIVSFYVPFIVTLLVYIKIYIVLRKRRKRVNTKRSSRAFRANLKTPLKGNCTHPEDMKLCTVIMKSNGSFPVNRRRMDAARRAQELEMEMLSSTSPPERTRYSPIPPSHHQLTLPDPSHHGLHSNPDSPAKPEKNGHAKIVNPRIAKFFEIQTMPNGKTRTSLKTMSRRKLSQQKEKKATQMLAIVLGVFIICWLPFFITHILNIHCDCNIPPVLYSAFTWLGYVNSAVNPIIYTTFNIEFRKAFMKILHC

| SMILES | IC50 [nM] |
| --- | --- |
| CCCCN1CCC[C@H](c2cccc(O)c2)C1 | 430 |
| CN1CCC[C@H](c2cccc(O)c2)C1 | 610 |
| CN1CCC[C@@H](c2cccc(O)c2)C1 | 290 |
| CCc1ccc(N2CCC[C@@H](c3cccc(O)c3)C2)cc1 | 43.7 |
| CCc1ccc(N2CCC[C@H](c3cccc(O)c3)C2)cc1 | 1230 |
